Measured values from publication PMC9182012, “Aza-Oxa-Triazole Based Macrocycles with Tunable Properties: Design, Synthesis, and Bioactivity” (Molecules, 2022).

test system: not listed separately; test: RP-HPLC retention time as measure of hydrophilicity/hydrophobicity; format: physicochemical; conditions: chromatographic, C18; acetonitrile and water with 0.1% formic acid, 5–95 % acetonitrile over 15 min; higher retention time = more hydrophobic
Description: The bulk properties of the macrocycles depend on the functional groups on the side chain and backbone and the ring size. The platform for the tunability in the macrocyclic scaffold aided in the synthesis of molecules with a wide range of properties. The hydrophilicity/hydrophobicity of the macrocycles is an important property, primarily for biological applications. The tunable property of the synthesized macrocycles is attributed to the different retention times in the reverse-phase high-performance liquid chromatogram (RP-HPLC). Hydrophilic compounds elute first through the column, thus lowering the retention time, whereas a higher retention time corresponds to the comparatively hydrophobic compounds. From Figure 3a, it could be inferred that the macrocycles MC1–5 and MC7 are hydrophilic, whereas MC8 and MC6 are hydrophobic, as depicted by the higher retention times. The higher hydrophobicity is due to the aromatic rings, two benzyl groups in MC6 and a naphthyl group in MC8. Another property achieved by one of the macrocycles is the addition of fluorophoric group as the side chain. The resultant fluorescence could be exploited for various photophysical applications, including the development of fluorimetric sensors (Figure 3b).
A Shimadzu (Kyoto, Japan) LC-MS-8045 with a Sprite TARGA C18 column (40 × 2.1 mm, 5 µm) was used for the LC-MS analysis. The spectra were monitored at 254 nm and 210 nm with a positive mode for mass detection. Water and acetonitrile with 0.1% formic acid were used as eluting solvents A and B. […] HRMS was carried out in a Bruker, Maxis Impact and Waters (Billerica, MA, USA) ACQUITY H-CLASS + UPLC/XevoG2 XS QTOF instrument. A 500 MHz Bruker AV III was used to record the ^1H NMR spectrum. The data were analyzed by MestReNova (version 8.1.1). ^1H NMR shifts are reported in units of ppm relative to tetramethyl silane. […]
Figure 3 Properties of the macrocycles. […] Fluorescence spectrum of 10 μM MC8 in methanol upon excitation with a wavelength of 278 nm.

Hydrophilicity/hydrophobicity inferred from RP-HPLC retention time	SMILES
hydrophilic	c1c2nnn1CCNCCn1cc(nn1)COCCCCCCCCCCCCOC2 [MC7]
hydrophobic	c1ccc2cc(CN3CCOCc4cn(nn4)CCNCCn4cc(nn4)COCC3)ccc2c1 [MC8]
hydrophobic	c1ccc(CN2CCN(Cc3ccccc3)Cc3cn(nn3)CCNCCn3cc(nn3)C2)cc1 [MC6]

molecular target: bovine serum albumin (BSA) (Bos taurus, UniProt P02769); test: Protein interaction by fluorescence quenching, Stern–Volmer binding constant; conditions: fluorescence quenching, 10 µM BSA, pH 7.4, 25 °C
Sequence (P02769 25-607): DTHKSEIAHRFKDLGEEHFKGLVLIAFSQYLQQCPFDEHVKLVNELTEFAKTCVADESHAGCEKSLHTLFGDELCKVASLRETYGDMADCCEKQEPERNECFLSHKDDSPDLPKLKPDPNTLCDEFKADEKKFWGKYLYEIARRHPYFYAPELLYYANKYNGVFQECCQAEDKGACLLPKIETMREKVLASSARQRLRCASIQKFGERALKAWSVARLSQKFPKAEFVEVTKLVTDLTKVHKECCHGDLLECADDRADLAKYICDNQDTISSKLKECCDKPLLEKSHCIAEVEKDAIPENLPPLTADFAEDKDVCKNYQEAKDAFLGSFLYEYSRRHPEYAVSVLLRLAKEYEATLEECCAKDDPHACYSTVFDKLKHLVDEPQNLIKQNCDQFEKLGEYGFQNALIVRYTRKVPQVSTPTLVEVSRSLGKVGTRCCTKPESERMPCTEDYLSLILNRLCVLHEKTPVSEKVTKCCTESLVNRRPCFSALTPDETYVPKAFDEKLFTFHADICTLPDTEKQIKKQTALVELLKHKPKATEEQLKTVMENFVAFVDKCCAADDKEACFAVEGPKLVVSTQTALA
Experimental: (§1) All the fluorescence spectra were recorded on a Perkin Elmer (Waltham, MA, USA) FL 6500 at 25 °C. The excitation wavelength of 280 nm and a slit width of 5 nm were used for excitation and emission. Next, 6.6 mg of BSA/HSA was dissolved in 10 mL of pH 7.4 phosphate buffer to make 10 μM BSA/HSA. The stock solutions of macrocycles were of 2 mM concentration dissolved in DMSO. The titrations were carried out in varied concentrations of macrocycles from 2 μM to 100 μM. Three minutes were given as the equilibration time after the addition of the solution. The Stern–Volmer plot was used to calculate the binding constant (slope) by plotting Io/I vs. the macrocycle concentration.
(§2) Figure 4 Fluorescence quenching of protein by MC7 at excitation wavelength 280 nm, (a) BSA and (b) HSA. To 10 µM protein solution in phosphate buffer (pH 7.4), 2–100 µM macrocycle solution was added at 25 °C. Inset: Stern–Volmer Plot; Io and I are the fluorescence intensity at 0 µM and the given concentration of the macrocycle, and the slope is considered as the binding constant. […]
(§3) 8.2 Fluorescence spectroscopy for protein interaction studies
(§4) 8.2.1 Experimental Procedure
(§5) 10 μM BSA was prepared by dissolving 6.6 mg of BSA in 10 mL of phosphate buffer of pH
(§6) 7.4. The macrocycles were dissolved in DMSO to make the stock solution of 2 mM concentration. 2 mL of the BSA control solution was taken in the fluorescence cuvette to take the emission at zero concentration of the compound. The titration was carried out by varying the concentration of macrocycle from 2 μM to 100 μM. An equilibration time of 3 minutes is given for each measurement after the addition of the solution. Binding constant were estimated from the Stern-Volmer plot by plotting I o/I vs concentration of the macrocycle. The slope of the graph was attributed as the binding constant.

Extent of binding with BSA, in words	SMILES
negligible binding	c1ccc(CN2CCN(Cc3ccccc3)Cc3cn(nn3)CCNCCn3cc(nn3)C2)cc1 [MC6]
moderate binding	c1c2nnn1CCNCCn1cc(nn1)CN(C1CCCCC1)CCOC2 [MC3]

Second part, the compound before the results:

SMILES	Extent of binding with BSA, in words
CN1CCN(C)Cc2cn(nn2)CCNCCn2cc(nn2)C1 [MC5]	negligible binding
c1c2nnn1CCNCCn1cc(nn1)COCCCCCCCCCCCCOC2 [MC7]	highest binding
CCCN1CCOCc2cn(nn2)CCNCCn2cc(nn2)C1 [MC1]	moderate binding
CCN(CC)C(=O)CN1CCOCc2cn(nn2)CCNCCn2cc(nn2)C1 [MC4]	moderate binding
CC(C)N1CCOCc2cn(nn2)CCNCCn2cc(nn2)C1 [MC2]	moderate binding

same assay, conditions: slope of Stern–Volmer plot (Io/I vs macrocycle concentration); 10 µM BSA in phosphate buffer pH 7.4, 2–100 µM macrocycle from 2 mM DMSO stock, 25 °C, excitation 280 nm, 3 min equilibration

Binding Constant, BSA [M⁻¹]	SMILES
800	c1ccc(CN2CCN(Cc3ccccc3)Cc3cn(nn3)CCNCCn3cc(nn3)C2)cc1 [MC6]
4200	c1c2nnn1CCNCCn1cc(nn1)CN(C1CCCCC1)CCOC2 [MC3]

The next lines start with the compound.

SMILES	Binding Constant, BSA [M⁻¹]
CN1CCN(C)Cc2cn(nn2)CCNCCn2cc(nn2)C1 [MC5]	1400
c1c2nnn1CCNCCn1cc(nn1)COCCCCCCCCCCCCOC2 [MC7]	27100
CCCN1CCOCc2cn(nn2)CCNCCn2cc(nn2)C1 [MC1]	4600
CCN(CC)C(=O)CN1CCOCc2cn(nn2)CCNCCn2cc(nn2)C1 [MC4]	9100
CC(C)N1CCOCc2cn(nn2)CCNCCn2cc(nn2)C1 [MC2]	4000

molecular target: human serum albumin (HSA) (Homo sapiens, UniProt P02768); test: as above; conditions: fluorescence quenching, 10 µM HSA, pH 7.4, 25 °C
Sequence (P02768 25-609): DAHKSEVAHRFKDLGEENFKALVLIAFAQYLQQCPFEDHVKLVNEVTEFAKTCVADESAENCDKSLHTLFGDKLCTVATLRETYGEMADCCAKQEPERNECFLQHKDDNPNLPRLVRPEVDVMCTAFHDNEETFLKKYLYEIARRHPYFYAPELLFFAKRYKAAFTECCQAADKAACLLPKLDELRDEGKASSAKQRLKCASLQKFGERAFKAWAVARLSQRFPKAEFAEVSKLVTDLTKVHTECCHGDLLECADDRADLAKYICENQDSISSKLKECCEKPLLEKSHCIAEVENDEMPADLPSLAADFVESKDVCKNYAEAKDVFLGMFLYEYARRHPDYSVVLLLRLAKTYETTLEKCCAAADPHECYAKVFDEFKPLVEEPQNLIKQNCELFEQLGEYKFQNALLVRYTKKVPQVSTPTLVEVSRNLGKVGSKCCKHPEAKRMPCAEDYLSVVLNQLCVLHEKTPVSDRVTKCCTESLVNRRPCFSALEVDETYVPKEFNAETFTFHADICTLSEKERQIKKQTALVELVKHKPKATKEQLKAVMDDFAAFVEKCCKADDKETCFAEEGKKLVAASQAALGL
Experimental: as §1, §2, §3, §4, §5, §6

Extent of interaction with HSA, in words	SMILES
highest interaction and quenching	c1c2nnn1CCNCCn1cc(nn1)COCCCCCCCCCCCCOC2 [MC7]
lowest	c1ccc(CN2CCN(Cc3ccccc3)Cc3cn(nn3)CCNCCn3cc(nn3)C2)cc1 [MC6]
greater extent of interaction	CCN(CC)C(=O)CN1CCOCc2cn(nn2)CCNCCn2cc(nn2)C1 [MC4]

same assay, conditions: slope of Stern–Volmer plot (Io/I vs macrocycle concentration); 10 µM HSA in phosphate buffer pH 7.4, 2–100 µM macrocycle from 2 mM DMSO stock, 25 °C, excitation 280 nm, 3 min equilibration

Binding Constant, HSA [M⁻¹]	SMILES
930	c1ccc(CN2CCN(Cc3ccccc3)Cc3cn(nn3)CCNCCn3cc(nn3)C2)cc1 [MC6]
3500	c1c2nnn1CCNCCn1cc(nn1)CN(C1CCCCC1)CCOC2 [MC3]

Continued, compound first:

SMILES	Binding Constant, HSA [M⁻¹]
CN1CCN(C)Cc2cn(nn2)CCNCCn2cc(nn2)C1 [MC5]	3200
c1c2nnn1CCNCCn1cc(nn1)COCCCCCCCCCCCCOC2 [MC7]	15800
CCCN1CCOCc2cn(nn2)CCNCCn2cc(nn2)C1 [MC1]	4200
CCN(CC)C(=O)CN1CCOCc2cn(nn2)CCNCCn2cc(nn2)C1 [MC4]	8400
CC(C)N1CCOCc2cn(nn2)CCNCCn2cc(nn2)C1 [MC2]	4400
